Entries after “also recorded” stand apart in the source; their conditions may differ. Like-named read-outs stand apart in the source and are kept apart here.
What was measured:
Type in all cases: cell-based
[1] = molecular target: T1, human μ-opioid receptor, OPRM (Homo sapiens, UniProt P35372); assay: PathHunter β-arrestin 2 assay, OPRM cell line; conditions: Example 3, Tables 5-7
T1 construct: host or cells: HEK-293 overexpressing β-arrestin2 fused to a β-galactosidase fragment
Source text: (§1) Human embryonic kidney 293 (HEK-293) cells which transfected overexpress (3-arrestin2 fused β-galactosidase fragment were purchased from DiscoverX. Human OPRM1 gene (NM 000914.3, encoding human μ-opioid receptor, OPRM) and Human OPRD1 gene (NM 000911.3, encoding human δ-opioid receptor, OPRD) were fused to a pCMV-ProLink plasmid which contains complementary β-galactosidase fragment purchased from DiscoverX. To generate human OPRM1 or OPRD1 expression cell lines, HEK-293 cells were transfected to prepared plasmid and grown in DMEM medium with 10% fetal bovine serum, 150 μg/mL Hygromycin B and 500 μg/mL G418.
(§2) The PathHunter enzyme assay was performed to measure the agonist's capability of β-arrestin 2 pathway activation. When agonists bind to G protein-coupled receptor (GPCR), the receptor pathway is sequentially activated from G protein to β-arrestin 2 recruitment.
(§3) Because […] β-arrestin 2 and C-terminal of GPCR have a fragment of β-galactosidase, recruitment of β-arrestin 2 to GPCR forms the whole β-galactosidase. The functionality of the whole β-galactosidase is detected by chemiluminescence (FlexStation3, Molecular Devices).
(§4) cAMP and β-arrestin assays described above were conducted to decide whether candidate compounds were μ- and/or δ-opioid receptor bias agonists for the G-protein pathway. All assays produced the concentration-response curve, and the curve data was validated by a quality control factor named Z′ factor. Because half-maximal effect concentration (EC50) depends on the population of receptors, the maximal asymptote of the concentration curve was used. Efficacy data of candidates was normalized by comparison to reference agonists DAMGO and SNC80 for OPRM and OPRD.

[2] = molecular target: T2, human δ-opioid receptor, OPRD (Homo sapiens, UniProt P41143); assay: PathHunter β-arrestin 2 assay, OPRD cell line; conditions: Example 3, Tables 5-7
T2 construct: host or cells: HEK-293 overexpressing β-arrestin2 fused to a β-galactosidase fragment
T2 sequence (P41143 whole entry, the tested form may be a part): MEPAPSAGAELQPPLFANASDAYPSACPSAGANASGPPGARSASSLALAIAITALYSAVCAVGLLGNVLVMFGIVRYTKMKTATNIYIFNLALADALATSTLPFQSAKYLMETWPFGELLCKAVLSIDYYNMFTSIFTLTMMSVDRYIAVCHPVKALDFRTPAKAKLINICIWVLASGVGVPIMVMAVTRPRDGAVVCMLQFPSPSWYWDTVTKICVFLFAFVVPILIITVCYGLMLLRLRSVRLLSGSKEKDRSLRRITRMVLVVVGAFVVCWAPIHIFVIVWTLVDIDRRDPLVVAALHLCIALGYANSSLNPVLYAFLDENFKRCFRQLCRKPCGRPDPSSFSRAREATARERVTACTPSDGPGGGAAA
Source text: as §1, §2, §3, §4

[3] = molecular target: T1, human μ-opioid receptor, OPRM; assay: Dominant assay: cAMP assay with/without irreversible antagonist β-FNA, OPRM cell line; conditions: for maximal response on decreasing receptor population (dominant tendency), in words: OPRM cell lines, β-FNA
Source text: (§5) To confirm the agonist's efficacy in a nature-like system, we need inactivation of target receptors on the cell membrane. Most cell lines have an abundant target receptor population (also known as spare receptors). Therefore, agonists have more opportunity to constitute agonist-receptor conformation. In this environment, not only full agonists but also partial agonists can reach maximal response.
(§6) If the partial agonist is selected as a full agonist, translational in vivo research will likely fail.
(§7) Non-competitive, irreversible antagonists can be applicable to judge the pharmacological character of agonists because they permanently decrease the receptor population in the cell line system. β-FNA or β-CNA is used as a non-competitive and irreversible antagonist for OPRM, OPRD. Before cAMP assay, cells were incubated with β-FNA or β-CNA for 40 minutes. Afterwards, the procedure is the same.
(§8) If a partial agonist compound acts as a full agonist due to receptor population (pseudo full agonist), it cannot sustain maximal response with reduced receptor population. However, a full agonist compound maintains their maximal response even though increased EC50.

[4] = molecular target: T2, human δ-opioid receptor, OPRD; assay: Dominant assay: cAMP assay with/without irreversible antagonist β-CNA, OPRD cell line; conditions: for maximal response on decreasing receptor population (dominant tendency), in words: OPRD cell lines, β-CNA
Source text: as §5, §6, §7, §8

[5] = addition of β-FNA, Example 3, Tables 5-7
[6] = addition of β-FNA, Example 3, Tables 5-7, read-out: OPRM Gi β-FNA (+) EC50
[7] = addition of β-FNA, repeated dominant assay, Example 4, Tables 8-10
[8] = addition of β-FNA, repeated dominant assay, Example 4, Tables 8-10, read-out: OPRM Gi β-FNA (+) EC50
[9] = no addition of β-FNA, Example 3, Tables 5-7
[10] = no addition of β-FNA, Example 3, Tables 5-7, read-out: OPRM Gi β-FNA (−) EC50
[11] = no addition of β-FNA, repeated dominant assay, Example 4, Tables 8-10
[12] = no addition of β-FNA, repeated dominant assay, Example 4, Tables 8-10, read-out: OPRM Gi β-FNA (−) EC50
[13] = addition of β-CNA, Example 3, Tables 5-7
[14] = addition of β-CNA, Example 3, Tables 5-7, read-out: OPRD Gi β-CNA (+) EC50
[15] = addition of β-CNA, repeated dominant assay, Example 4, Tables 8-10
[16] = addition of β-CNA, repeated dominant assay, Example 4, Tables 8-10, read-out: OPRD Gi β-CNA (+) EC50
[17] = no addition of β-CNA, Example 3, Tables 5-7
[18] = no addition of β-CNA, Example 3, Tables 5-7, read-out: OPRD Gi β-CNA (−) EC50
[19] = no addition of β-CNA, repeated dominant assay, Example 4, Tables 8-10
[20] = no addition of β-CNA, repeated dominant assay, Example 4, Tables 8-10, read-out: OPRD Gi β-CNA (−) EC50

T1 sequence (P35372 whole entry, the tested form may be a part): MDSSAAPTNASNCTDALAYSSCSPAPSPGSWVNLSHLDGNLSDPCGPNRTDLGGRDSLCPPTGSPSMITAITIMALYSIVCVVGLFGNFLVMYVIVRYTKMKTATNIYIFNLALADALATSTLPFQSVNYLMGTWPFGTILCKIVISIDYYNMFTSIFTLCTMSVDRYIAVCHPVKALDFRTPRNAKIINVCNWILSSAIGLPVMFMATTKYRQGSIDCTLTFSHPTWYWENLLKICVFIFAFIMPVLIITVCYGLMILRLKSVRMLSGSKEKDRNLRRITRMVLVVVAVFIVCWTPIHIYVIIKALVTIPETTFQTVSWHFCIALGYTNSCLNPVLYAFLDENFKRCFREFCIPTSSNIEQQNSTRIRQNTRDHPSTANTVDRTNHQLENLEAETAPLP

SMILES | OPRM β-ARR2 Emax (%) [1] [%] | OPRD β-ARR2 Emax (%) [2] [%] | maximal response on decreasing receptor population (dominant tendency), in words [3] | OPRM Gi β-FNA (+) Emax (%) [3, 5] [%] | EC50 [3, 6] [µM] | OPRM Gi β-FNA (+) Emax (%) [3, 7] [%] | EC50 [3, 8] [µM] | OPRM Gi β-FNA (−) Emax (%) [3, 9] [%] | EC50 [3, 10] [µM] | OPRM Gi β-FNA (−) Emax (%) [3, 11] [%] | EC50 [3, 12] [µM] | maximal response on decreasing receptor population (dominant tendency), in words [4] | OPRD Gi β-CNA (+) Emax (%) [4, 13] [%] | EC50 [4, 14] [µM] | OPRD Gi β-CNA (+) Emax (%) [4, 15] [%] | EC50 [4, 16] [µM] | OPRD Gi β-CNA (−) Emax (%) [4, 17] [%] | EC50 [4, 18] [µM] | OPRD Gi β-CNA (−) Emax (%) [4, 19] [%] | EC50 [4, 20] [µM] | also measured
CN1CCc2cc(C(CNC(=O)Nc3ccc(F)cc3)N(C)C)ccc21 (single isomer, unassigned) [Compound 7] | 22.0 | 6.4 | resistant to decreasing spare receptors; also recorded: showed efficacy dominance on both types of opioid receptors; also recorded: resistant to decreasing spare receptor-induced tendency; also recorded: maintained a higher maximal response as compared to compound 2 | 85.93 | 0.728 | 90.07 | 6.95 | 95.81 | 0.0416 | 100.9 | 2.31 | resistant to decreasing spare receptors; also recorded: showed efficacy dominance on both types of opioid receptors; also recorded: resistant to decreasing spare receptor-induced tendency; also recorded: maintained a higher maximal response as compared to compound 2 | 100.2 | 4.9 | 81.99 | 3.44 | 98.3 | 0.517 | 100.2 | 1.05 | –
Cc1ccccc1NC(=O)NCC(c1ccc2c(c1)CCO2)N(C)C (single isomer, unassigned) [Compound 9] | 22.9 | 16.1 | – | 52.64 | 1.66 | 74.49 | 0.791 | 98.76 | 0.0733 | 91.98 | 0.0713 | – | 51.61 | 5.86 | 51.61 | 5.86 | 66.82 | 2.79 | 139 | 18.1 | –
CN(C)C(CNC(=O)Cc1ccc2c(c1)OCCO2)c1ccccc1 (single isomer, unassigned) [Compound 5] | 23.1 | 5.7 | superior efficacy-dominant properties | 21.91 | 2.45 | 77.98 | 4.07 | 102 | 0.292 | 101.9 | 1.65 | superior efficacy-dominant properties | 79.38 | 6.1 | 65.27 | 8.79 | 111 | 6.67 | 100 | 7.33 | –
C=CCN1C[C@H](C)N([C@H](c2ccc(C(=O)N(CC)CC)cc2)c2cccc(OC)c2)C[C@H]1C [SNC80, reference compound] | – | – | – | – | – | – | – | – | – | – | – | full agonist | – | – | – | – | – | – | – | – | completeness of concentration-response curve, in words ([4]; OPRD system): produced a full concentration-response curve

From US20220204449A1, “BIASED AGONISTS OF OPIOID RECEPTORS” (ILDONG PHARMACEUTICAL CO., LTD., priority 2020, published 2022)
